Laboratory results: patent US20210391038A1, “SPECIFICALLY-SHAPED CRYSTAL OF COMPOUND AND METHOD FOR PRODUCING SAME” (TOWA PHARMACEUTICAL CO., LTD., priority 2018, published 2021)
Structures can show the parent of a compound that is named as a salt.

Assay: Measurement of critical degree of supersaturation of spherulite
Type: physicochemical
Excerpt: “Supersaturated solution” in the present description means a solution in a state of containing a solute exceeding the solubility. As the degree of supersaturation, “degree of supersaturation” can be used. Regarding the degree of supersaturation, when the concentration (mass concentration (g/g)) of a compound dissolved in a supersaturated solution is defined as C and the solubility of the compound is defined as Cs, the degree of supersaturation S can be represented by the following formula: […]
“Critical degree of supersaturation” in the present description means the lowest degree of supersaturation required to obtain a specifically-shaped crystal. […] The value of a critical degree of supersaturation varies depending on the shape of a crystal. For example, all of values of a critical degree of supersaturation required to obtain a plate crystal, a critical degree of supersaturation required to obtain a needle crystal, and a critical degree of supersaturation required to obtain a spherulite are different. The critical degree of supersaturation required to obtain a spherulite is higher than the critical degree of supersaturation required to obtain a plate crystal or a needle crystal.
The actual measured value of the critical degree of supersaturation (S*) can be measured as follows:
(1) 100 particles are observed by SEM. (2) 5 to 10 particles whose shape is close to a desired specific shape are selected, and the shape is evaluated. In particular, when the desired specific shape is a sphere, the sphericity is evaluated. (3) Based on the evaluation index of the shape, whether the selected particles have the desired specific shape or not is determined. In particular, when the desired specific shape is a sphere, the case where the sphericity is 0.60 or more is determined as a spherulite. (4) The above-mentioned operation is performed for each sample having a different degree of supersaturation during crystallization, and the minimum value of a degree of supersaturation having the specifically-shaped particles is determined as the critical degree of supersaturation. The difference between the maximum value of a degree of supersaturation not having the specifically-shaped particles and the critical degree of supersaturation should be 20% or less.
The critical degree of supersaturation of a spherulite of ketotifen fumarate was determined as follows. To 2.0 g of ketotifen fumarate, 10 mL (5 v/w) of methanol was added, followed by reflux to completely dissolve. This solution was added dropwise to 50 mL of isopropanol at 20° C. to prepare a supersaturated solution of ketotifen fumarate. The degree of supersaturation of the supersaturated solution at the end of dropwise addition was 9.0. The supersaturated solution was crystallized. The crystal was collected by filtration, followed by drying under reduced pressure at 40° C., thus obtaining a crystal of ketotifen fumarate.
Similarly, when a substrate and a solvent different from those mentioned above are used, a plurality of samples having a different degree of supersaturation are prepared and crystallized, and then the critical degree of supersaturation of the spherulite was measured.

CC[C@H]1OC(=O)[C@H](C)[C@@H](O[C@H]2C[C@@](C)(OC)[C@@H](O)[C@H](C)O2)[C@H](C)[C@@H](O[C@@H]2O[C@H](C)C[C@H](N(C)C)[C@H]2O)[C@](C)(O)C[C@@H](C)CN(C)[C@H](C)[C@@H](O)[C@]1(C)O [Azithromycin monohydrate]
Critical degree of supersaturation S Experimental value (entry 11, solvent 1 IPA, solvent 2 H2O, solvent 2/solvent 1 ratio 10, crystallization 0 °C): 3.2 | Critical degree of supersaturation S Experimental value (entry 14, solvent 1 IPA, solvent 2 H2O, solvent 2/solvent 1 ratio 20, crystallization 0 °C): 1.6 | Critical degree of supersaturation S Experimental value (entry 15, solvent 1 Acetone, solvent 2 H2O, solvent 2/solvent 1 ratio 10, crystallization 0 °C): 6.2 | Critical degree of supersaturation S Experimental value (entry 16, solvent 1 EtOH, solvent 2 H2O, solvent 2/solvent 1 ratio 20, crystallization 0 °C): 7.1 | Critical degree of supersaturation S Experimental value (entry 17, solvent 1 MeOH, solvent 2 H2O, solvent 2/solvent 1 ratio 20, crystallization 0 °C): 7.5 | Critical degree of supersaturation S Experimental value (entry 18, solvent 1 IPA, solvent 2 H2O, solvent 2/solvent 1 ratio 10, crystallization 20 °C): 11.1

O=C(O)CCCN1CCC(O[C@@H](c2ccc(Cl)cc2)c2ccccn2)CC1.O=S(=O)(O)c1ccccc1 [Bepotastine besilate]
actual measured value of the critical degree of supersaturation: 36.4 | Critical degree of supersaturation S Experimental value (entry 57, solvent 1 EtOH, solvent 2 AcOiPr, solvent 2/solvent 1 ratio 10, crystallization 0 °C): 36.4

CC[C@H]1OC(=O)[C@H](C)[C@@H](O[C@H]2C[C@@](C)(OC)[C@@H](O)[C@H](C)O2)[C@H](C)[C@@H](O[C@@H]2O[C@H](C)C[C@H](N(C)C)[C@H]2O)[C@](C)(OC)C[C@@H](C)C(=O)[C@H](C)[C@@H](O)[C@]1(C)O [Clarithromycin]
actual measured value of the critical degree of supersaturation: 17 | Critical degree of supersaturation S Experimental value (entry 8, solvent 1 THF, solvent 2 H2O, solvent 2/solvent 1 ratio 25, crystallization 0 °C): 11 | Critical degree of supersaturation S Experimental value (entry 9, solvent 1 THF, solvent 2 H2O, solvent 2/solvent 1 ratio 70, crystallization 0 °C): 26 | Critical degree of supersaturation S Experimental value (entry 10, solvent 1 THF, solvent 2 H2O, solvent 2/solvent 1 ratio 75, crystallization 10 °C): 17

COC(=O)[C@H](c1ccccc1Cl)N1CCc2sccc2C1 [Clopidogrel sulfate]
Critical degree of supersaturation S Experimental value (entry 3, solvent 1 H2O, solvent 2 2-BuOH, solvent 2/solvent 1 ratio 222, crystallization 20 °C): 9.7

CCCCCCOC(=O)N=C(N)c1ccc(NCc2nc3cc(C(=O)N(CCC(=O)OCC)c4ccccn4)ccc3n2C)cc1 [Dabigatran etexilate methanesulfonate]
actual measured value of the critical degree of supersaturation: 4.3 | Critical degree of supersaturation S Experimental value (entry 24, solvent 1 MeOH, solvent 2 TBME, solvent 2/solvent 1 ratio 10, crystallization 20 °C): 3.3 | Critical degree of supersaturation S Experimental value (entry 25, solvent 1 EtOH, solvent 2 EtOAc, solvent 2/solvent 1 ratio 10, crystallization 5 °C): 2.9 | Critical degree of supersaturation S Experimental value (entry 26, solvent 1 EtOH, solvent 2 EtOAe, solvent 2/solvent 1 ratio 10, crystallization 20 °C): 4.3 | Critical degree of supersaturation S Experimental value (entry 27, solvent 1 EtOH, solvent 2 EtOAc, solvent 2/solvent 1 ratio 10, crystallization 35 °C): 5.2

CN(C)CCC[C@@]1(c2ccc(F)cc2)OCc2cc(C#N)ccc21 [Escitalopram oxalate]
actual measured value of the critical degree of supersaturation: 3.7 | Critical degree of supersaturation S Experimental value (entry 21, solvent 1 H2O, solvent 2 2-BuOH, solvent 2/solvent 1 ratio 30, crystallization 0 °C): 2.8 | Critical degree of supersaturation S Experimental value (entry 22, solvent 1 H2O, solvent 2 2-BuOH, solvent 2/solvent 1 ratio 15, crystallization 0 °C): 3.7 | Critical degree of supersaturation S Experimental value (entry 23, solvent 1 H2O, solvent 2 IPA, solvent 2/solvent 1 ratio 15, crystallization 0 °C): 4

COc1ccc2[n-]c([S+]([O-])Cc3ncc(C)c(OC)c3C)nc2c1.COc1ccc2[n-]c([S+]([O-])Cc3ncc(C)c(OC)c3C)nc2c1.[Mg+2] (stereo not drawn) [Esomeprazolc magnesium hydrate]
Critical degree of supersaturation S Experimental value (entry 1, solvent 1 MeOH, solvent 2 H2O, solvent 2/solvent 1 ratio 1, crystallization 35 °C): 1.4

N[C@@H](CCC(=O)N[C@@H](CS)C(=O)NCC(=O)O)C(=O)O [Glutathione]
actual measured value of the critical degree of supersaturation: 18.7 | Critical degree of supersaturation S Experimental value (entry 47, solvent 1 H2O, solvent 2 EtOH, solvent 2/solvent 1 ratio 5, crystallization 20 °C): 18.7

CN1CCC(=C2c3ccccc3CC(=O)c3sccc32)CC1 [Ketotifen fumarate]
Critical degree of supersaturation S Experimental value (entry 4, solvent 1 MeOH, solvent 2 IPA, solvent 2/solvent 1 ratio 5, crystallization 0 °C): 2.5 | Critical degree of supersaturation S Experimental value (entry 5, solvent 1 MeOH, solvent 2 IPA, solvent 2/solvent 1 ratio 5, crystallization 50 °C): 4 | Critical degree of supersaturation S Experimental value (entry 6, solvent 1 MeOH, solvent 2 2-BuOH, solvent 2/solvent 1 ratio 5, crystallization 0 °C): 1.6 | Critical degree of supersaturation S Experimental value (entry 7, solvent 1 MeOH, solvent 2 2-BuOH, solvent 2/solvent 1 ratio 5, crystallization 20 °C): 4.4 | critical degree of supersaturation of a spherulite (methanol to isopropanol 1:5, temperature during crystallization 20° C.): 4.0

Cc1c(OCC(F)(F)F)ccnc1C[S+]([O-])c1nc2ccccc2[nH]1 (stereo not drawn) [Lansoprazole]
actual measured value of the critical degree of supersaturation: 10.9 | Critical degree of supersaturation S Experimental value (entry 2, solvent 1 MeOH, solvent 2 H2O, solvent 2/solvent 1 ratio 3, crystallization 0 °C): 6.9 | Critical degree of supersaturation S Experimental value (entry 20, solvent 1 MeOH, solvent 2 H2O, solvent 2/solvent 1 ratio 3, crystallization 15 °C): 12.6

Nc1nc(CC(=O)Nc2ccc(CCNC[C@H](O)c3ccccc3)cc2)cs1 [Mirabegron]
actual measured value of the critical degree of supersaturation: 5.6 | Critical degree of supersaturation S Experimental value (entry 48, solvent 1 H2O, solvent 2 MeOH, solvent 2/solvent 1 ratio 1.25, crystallization 0 °C): 1.6 | Critical degree of supersaturation S Experimental value (entry 49, solvent 1 H2O, solvent 2 MeOH, solvent 2/solvent 1 ratio 1.25, crystallization 10 °C): 3.2 | Critical degree of supersaturation S Experimental value (entry 50, solvent 1 MeOH, solvent 2 TBME, solvent 2/solvent 1 ratio 10, crystallization 0 °C): 4 | Critical degree of supersaturation S Experimental value (entry 51, solvent 1 MeOH, solvent 2 TBME, solvent 2/solvent 1 ratio 10, crystallization 10 °C): 4.3 | Critical degree of supersaturation S Experimental value (entry 52, solvent 1 EtOH, solvent 2 TBME, solvent 2/solvent 1 ratio 10, crystallization 0 °C): 5.6 | Critical degree of supersaturation S Experimental value (entry 53, solvent 1 EtOH, solvent 2 TBME, solvent 2/solvent 1 ratio 10, crystallization 10 °C): 5.4

CN(C)CC/C=C1/c2ccccc2COc2ccc(CC(=O)O)cc21 [Olopatadine]
actual measured value of the critical degree of supersaturation: 9.7 | Critical degree of supersaturation S Experimental value (entry 58, solvent 1 MeOH, solvent 2 EtOAc, solvent 2/solvent 1 ratio 20, crystallization 15 °C): 9.7

Cc1cccc(C)c1NC(=O)CC12CCCN1CCC2.Cl [Pilsicainide hydrochloride anhydride]
actual measured value of the critical degree of supersaturation: 27 | Critical degree of supersaturation S Experimental value (entry 35, solvent 1 IPA, solvent 2 Toluene, solvent 2/solvent 1 ratio 10, crystallization 5 °C): 27

Cc1cc(N2CCN([C@@H]3CN[C@H](C(=O)N4CCSC4)C3)CC2)n(-c2ccccc2)n1 [Teneligliptin hydrobromide hydrate]
actual measured value of the critical degree of supersaturation: 7.9 | Critical degree of supersaturation S Experimental value (entry 32, solvent 1 MeOH, solvent 2 1-BuOH, solvent 2/solvent 1 ratio 10, crystallization 0 °C): 5.2 | Critical degree of supersaturation S Experimental value (entry 33, solvent 1 MeOH, solvent 2 1-BuOH, solvent 2/solvent 1 ratio 10, crystallization 20 °C): 7.9 | Critical degree of supersaturation S Experimental value (entry 34, solvent 1 MeOH, solvent 2 1-BuOH, solvent 2/solvent 1 ratio 10, crystallization 40 °C): 12.6

Cn1c(=O)c2[nH]cnc2n(C)c1=O.[Mg] [Theophylline magnesium salt]
actual measured value of the critical degree of supersaturation: 3.5 | Critical degree of supersaturation S Experimental value (entry 28, solvent 1 MeOH, solvent 2 H2O, solvent 2/solvent 1 ratio 3, crystallization 0 °C): 3.5 | Critical degree of supersaturation S Experimental value (entry 29, solvent 1 EtOH, solvent 2 H2O, solvent 2/solvent 1 ratio 3, crystallization 0 °C): 3.9 | Critical degree of supersaturation S Experimental value (entry 30, solvent 1 Acetone, solvent 2 H2O, solvent 2/solvent 1 ratio 3, crystallization 0 °C): 6.3 | Critical degree of supersaturation S Experimental value (entry 31, solvent 1 IPA, solvent 2 H2O, solvent 2/solvent 1 ratio 3, crystallization 0 °C): 6.6

Cc1ccccc1C(=O)Nc1ccc(C(=O)N2CCCC(O)c3cc(Cl)ccc32)c(C)c1 (stereo not drawn) [Tolvaptan]
actual measured value of the critical degree of supersaturation: 4.8 | Critical degree of supersaturation S Experimental value (entry 54, solvent 1 MeOH, solvent 2 H2O, solvent 2/solvent 1 ratio 0.4, crystallization 0 °C): 4.8 | Critical degree of supersaturation S Experimental value (entry 55, solvent 1 MeOH, solvent 2 H2O, solvent 2/solvent 1 ratio 0.4, crystallization 10 °C): 7.1

COc1cccc(C2(O)CCCCC2CN(C)C)c1 (stereo not drawn) [Tramadol hydrochloride]
actual measured value of the critical degree of supersaturation: 4.2 | Critical degree of supersaturation S Experimental value (entry 36, solvent 1 MeOH, solvent 2 i-PrOAc, solvent 2/solvent 1 ratio 20, crystallization 10 °C): 4.7 | Critical degree of supersaturation S Experimental value (entry 37, solvent 1 IPA, solvent 2 TBME, solvent 2/solvent 1 ratio 30, crystallization 10 °C): 11.1 | Critical degree of supersaturation S Experimental value (entry 38, solvent 1 EtOH, solvent 2 TBME, solvent 2/solvent 1 ratio 30, crystallization 10 °C): 22.4
